Test results taken from the NIST ThermoML archive (doi:10.1016/j.jct.2016.04.024).
± gives the expanded uncertainty stated by the source.

Columns and labels:
[1] = xn = mol fraction of the nth substance listed; settings: 100 kPa, Liquid; for speed of sound: Frequency=3 MHz, Sing-around technique in a fixed-path interferometer; for mass density: Vibrating tube method
[2] = 100 kPa, Liquid; for speed of sound: Frequency=3 MHz, Sing-around technique in a fixed-path interferometer; for mass density: Vibrating tube method

Nc1ccccc1 [aniline] + CCCCn1cc[n+](C)c1.F[B-](F)(F)F
[1]
Settings | mass density, 293.15 K [kg/m3] | mass density, 303.15 K [kg/m3] | mass density, 313.15 K [kg/m3] | mass density, 323.15 K [kg/m3] | speed of sound, 293.15 K [m/s] | speed of sound, 303.15 K [m/s] | speed of sound, 313.15 K [m/s] | speed of sound, 323.15 K [m/s]
x2 = 0 | 1021.69 ± 1 | 1013.04 ± 1 | 1004.36 ± 1 | 995.66 ± 1 | 1656.8 ± 1.3 | 1618.3 ± 1.3 | 1580 ± 1.3 | 1541.9 ± 1.3
x2 = 0.1001 | 1058.27 ± 1.5 | 1050.3 ± 1.4 | 1042.33 ± 1.4 | 1034.33 ± 1.4 | 1661 ± 1.4 | 1626.5 ± 1.4 | 1592 ± 1.4 | 1557.7 ± 1.3
x2 = 0.2028 | – | – | – | 1068.14 ± 1.5 | – | – | – | 1569.8 ± 1.4
x2 = 0.4991 | 1150.32 ± 1.5 | 1143.1 ± 1.5 | 1135.81 ± 1.5 | 1128.64 ± 1.5 | 1624.8 ± 1.4 | 1598.3 ± 1.4 | 1571.9 ± 1.4 | 1546.1 ± 1.4
x2 = 0.6032 | 1163.88 ± 1.6 | 1156.61 ± 1.6 | 1149.6 ± 1.5 | 1142.78 ± 1.5 | 1610.6 ± 1.5 | 1584.8 ± 1.5 | 1559.4 ± 1.5 | 1534.7 ± 1.5
x2 = 0.7021 | 1175.38 ± 1.6 | 1168.21 ± 1.6 | 1161.22 ± 1.6 | 1154.4 ± 1.6 | 1599.8 ± 1.5 | 1574.8 ± 1.5 | 1549.2 ± 1.5 | 1525.1 ± 1.5
x2 = 0.7907 | 1184.36 ± 1.6 | 1177.25 ± 1.6 | 1170.51 ± 1.6 | 1163.73 ± 1.6 | 1592.7 ± 1.5 | 1568.5 ± 1.5 | 1540.8 ± 1.5 | 1518.5 ± 1.5
x2 = 0.9026 | 1194.78 ± 1.6 | 1187.71 ± 1.6 | 1180.84 ± 1.6 | 1173.92 ± 1.6 | 1584.1 ± 1.6 | 1559.7 ± 1.6 | 1535.8 ± 1.6 | 1512.4 ± 1.5

Nc1ccccc1 [aniline]
[2]
Settings | mass density [kg/m3] | speed of sound [m/s]
293.15 K | 1021.69 ± 1 | 1656.8 ± 1.3
303.15 K | 1013.04 ± 1 | 1618.3 ± 1.3
313.15 K | 1004.36 ± 1 | 1580 ± 1.3
323.15 K | 995.66 ± 1 | 1541.9 ± 1.3

CCCCn1cc[n+](C)c1.F[B-](F)(F)F [1-butyl-3-methylimidazolium tetrafluoroborate] + Nc1ccccc1
[1], x1 = 1
Settings | mass density [kg/m3] | speed of sound [m/s]
293.15 K | 1203.63 ± 1.1 | 1577.5 ± 1.6
303.15 K | 1195.18 ± 1.1 | 1553.2 ± 1.6
313.15 K | 1188.04 ± 1.1 | 1529.7 ± 1.6
323.15 K | 1180.98 ± 1.1 | 1506.8 ± 1.6

CCCCn1cc[n+](C)c1.F[B-](F)(F)F [1-butyl-3-methylimidazolium tetrafluoroborate]
[2], 293.15 K
Settings | mass density [kg/m3] | speed of sound [m/s]
– | 1203.63 ± 1.1 | 1577.5 ± 1.6
